From patent publication US20120252741A1, “NOVEL SEMI-SYNTHETIC GLYCOPEPTIDES AS ANTIBACTERIAL AGENTS” (priority 2008, published 2012)
Converted amounts (≈) assume the structure as drawn. Read-outs that look alike come from different tables or passages of the source.

Columns and labels:
Format in all cases: cell-based
[1] = tested on: Enterococcus faecium 752 (VRE, Van A); assay: MIC, broth microdilution, EFcm 752; settings: VRE, Van A, class symbols, read-out: MIC E FCM 752
Procedure: (§1) Antibacterial activity in vitro is investigated by broth microdilution method in Meuller-Hinton broth as recommended by NCCLS. All strains tested are clinical isolates either sensitive or resistant to natural glycopeptides. MIC values were determined using the CLSI-recommended broth microdilution procedure (Clinical and Laboratory Standards Institute, Methods for Dilution Antimicrobial Susceptibility Tests for Bacteria That Grow Aerobically; Approved Standard-Seventh Edition.). Automated liquid handlers (Multidrop 384, Labsystems, Helsinki, Finland; Biomek 2000 and Multimek 96, Beckman Coulter, Fullerton Calif.) were used to conduct serial dilutions and liquid transfers. The MIC value for vancomycin is given for comparison. The abbreviations for organisms tested are as follow: SA 100—Staphylococcus aureus 100 (ATCC 29213); SA 757—Staphylococcus aureus 757 (MRSA); SA 2012—Staphylococcus aureus 2012 (VISA); SE 835—Staphylococcus epidermidis 835; SE 831—Staphylococcus epidermidis 831 (MRSE); EFc 101—Enterococcus faecalis 101 (ATCC 29212); EFc 848—Enterococcus faecalis 848 (VRE, Van A); EFcm 800—Enterococcus faecium 800; EFcm 752—Enterococcus faecium 752 (VRE, Van A); SPNE 1195—Streptococcus pneumoniae 1195 (ATCC 49619); SPY 712—Streptococcus pyogenes 712.

[2] = tested on: Enterococcus faecalis 101 (ATCC 29212); assay: MIC, broth microdilution, EFc 101; settings: Enterococcus faecalis, ATCC29212, class symbols, read-out: MIC E FC 101
Procedure: as §1

Enterococcus faecium 800 = assay: MIC, broth microdilution, EFcm 800; settings: Enterococcus faecium, 800, class symbols, read-out: MIC E FCM 800
Procedure: as §1

[3] = tested on: Streptococcus pyogenes 712; assay: MIC, broth microdilution, SPY 712; settings: Streptococcus pyogenes, 712, class symbols, read-out: MIC S PYO 712
Procedure: as §1

[4] = tested on: Staphylococcus epidermidis 835; assay: MIC, broth microdilution, SE 835; settings: Staphylococcus epidermidis, 835, class symbols, read-out: MIC SE 835
Procedure: as §1

[5] = tested on: Staphylococcus aureus 100 (ATCC 29213); assay: MIC, broth microdilution, SA 100; settings: Staphylococcus aureus, ATCC29213, class symbols, read-out: MIC SA 100
Procedure: as §1

[6] = tested on: Staphylococcus epidermidis 831 (MRSE); assay: MIC, broth microdilution, SE 831; settings: Staphylococcus epidermidis, read-out: MIC SE 831
Procedure: as §1

[7] = tested on: Staphylococcus aureus 2012 (VISA); assay: MIC, broth microdilution, SA 2012; settings: read-out: MIC SA 2012
Procedure: as §1

[8] = tested on: Enterococcus faecalis 848 (VRE, Van A); assay: MIC, broth microdilution, EFc 848; settings: VRE, Van A, class symbols, read-out: MIC E FC 848
Procedure: as §1

[9] = tested on: Streptococcus pneumoniae 1195 (ATCC 49619); assay: MIC, broth microdilution, SPNE 1195; settings: Streptococcus pneumoniae, ATCC49619, class symbols, read-out: MIC S PNE 1195
Procedure: as §1

[10] = tested on: Staphylococcus aureus 757 (MRSA); assay: MIC, broth microdilution, SA 757; settings: read-out: MIC SA 757
Procedure: as §1

[11] = Table 2, in the presence of 0.002% Polysorbate 80
[12] = Table 2, in the presence of 0.002% Polysorbate 80, class symbols

CN[C@H](CC(C)C)C(=O)N[C@H]1C(=O)N[C@@H](CC(=O)NC(=O)c2ccc(OCCN)c(OCCN)c2)C(=O)N[C@H]2C(=O)N[C@H]3C(=O)N[C@H](C(=O)N[C@H](C(=O)NC4C5CC6CC(C5)CC4C6)c4cc(O)cc(O)c4-c4cc3ccc4O)[C@H](O)c3ccc(c(Cl)c3)Oc3cc2cc(c3O[C@@H]2O[C@H](CO)[C@@H](O)[C@H](O)[C@H]2O[C@H]2C[C@](C)(N)[C@H](O)[C@H](C)O2)Oc2ccc(cc2Cl)[C@H]1O (stereo partly drawn) [Compound 165]
MIC [1, 11]: 2 to 4 µg/mL
MIC [2, 11]: 0.01 to 0.5 µg/mL
MIC (Enterococcus faecium 800; [11]): 0.01 to 0.5 µg/mL
MIC [3, 11]: 0.01 to 0.5 µg/mL
MIC [4, 11]: 0.5 to 1 µg/mL
MIC [5, 11]: 0.01 to 0.5 µg/mL
MIC [6, 12]: 0.01 to 0.5 µg/mL
MIC [7, 12]: 1 to 2 µg/mL
MIC [8, 11]: > 16 µg/mL
MIC [9, 11]: 0.01 to 0.5 µg/mL
MIC [10, 12]: 0.01 to 0.5 µg/mL

CN[C@H](CC(C)C)C(=O)N[C@H]1C(=O)N[C@@H](CC(=O)NC(=O)c2ccc(OC)cc2)C(=O)N[C@H]2C(=O)N[C@H]3C(=O)N[C@H](C(=O)N[C@H](C(=O)NC4C5CC6CC(C5)CC4C6)c4cc(O)cc(O)c4-c4cc3ccc4O)[C@H](O)c3ccc(c(Cl)c3)Oc3cc2cc(c3O[C@@H]2O[C@H](CO)[C@@H](O)[C@H](O)[C@H]2O[C@H]2C[C@](C)(N)[C@H](O)[C@H](C)O2)Oc2ccc(cc2Cl)[C@H]1O (stereo partly drawn) [Compound 62]
MIC [1, 11]: 0.5 to 1 µg/mL
MIC [2, 11]: 0.01 to 0.5 µg/mL
MIC (Enterococcus faecium 800; [11]): 0.01 to 0.5 µg/mL
MIC [3, 11]: 0.01 to 0.5 µg/mL
MIC [4, 11]: 0.01 to 0.5 µg/mL
MIC [5, 11]: 0.01 to 0.5 µg/mL
MIC [6, 12]: 0.01 to 0.5 µg/mL
MIC [7, 12]: 2 to 4 µg/mL
MIC [8, 11]: 4 to 8 µg/mL
MIC [9, 11]: 0.01 to 0.5 µg/mL
MIC [10, 12]: 0.01 to 0.5 µg/mL

CCCCOc1ccc(S(=O)(=O)NC(=O)C[C@@H]2NC(=O)[C@H](NC(=O)[C@@H](CC(C)C)NC)[C@H](O)c3ccc(c(Cl)c3)Oc3cc4cc(c3O[C@@H]3O[C@H](CO)[C@@H](O)[C@H](O)[C@H]3O)Oc3ccc(cc3Cl)[C@@H](O)[C@@H]3NC(=O)[C@H](NC(=O)[C@@H]4NC2=O)c2ccc(O)c(c2)-c2c(O)cc(O)cc2[C@@H](C(=O)NC2C4CC5CC(C4)CC2C5)NC3=O)cc1 (stereo partly drawn) [Compound 117]
MIC ([1]; Table 1): 1 to 2 µg/mL (≈ 0.605 to 1.21 µM)
MIC ([2]; Table 1): 0.01 to 0.5 µg/mL (≈ 0.00605 to 0.303 µM)
MIC (Enterococcus faecium 800; Table 1): 0.01 to 0.5 µg/mL (≈ 0.00605 to 0.303 µM)
MIC ([3]; Table 1): 0.01 to 0.5 µg/mL (≈ 0.00605 to 0.303 µM)
MIC ([4]; Table 1): 0.01 to 0.5 µg/mL (≈ 0.00605 to 0.303 µM)
MIC ([5]; Table 1): 0.01 to 0.5 µg/mL (≈ 0.00605 to 0.303 µM)
MIC ([6]; Table 1, class symbols): 0.01 to 0.5 µg/mL (≈ 0.00605 to 0.303 µM)
MIC ([7]; Table 1, class symbols): 2 to 4 µg/mL (≈ 1.21 to 2.42 µM)
MIC ([8]; Table 1): 2 to 4 µg/mL (≈ 1.21 to 2.42 µM)
MIC ([9]; Table 1): 0.01 to 0.5 µg/mL (≈ 0.00605 to 0.303 µM)
MIC ([10]; Table 1, class symbols): 0.01 to 0.5 µg/mL (≈ 0.00605 to 0.303 µM)

CCCCCCCCCC(=O)NC(=O)C[C@@H]1NC(=O)[C@H](NC(=O)[C@@H](CC(C)C)NC)[C@H](O)c2ccc(c(Cl)c2)Oc2cc3cc(c2O[C@@H]2O[C@H](CO)[C@@H](O)[C@H](O)[C@H]2O[C@H]2C[C@](C)(N)[C@H](O)[C@H](C)O2)Oc2ccc(cc2Cl)[C@@H](O)[C@@H]2NC(=O)[C@H](NC(=O)[C@@H]3NC1=O)c1ccc(O)c(c1)-c1c(O)cc(O)cc1[C@@H](C(=O)NC1C3CC4CC(C3)CC1C4)NC2=O (stereo partly drawn) [Compound 43]
MIC ([1]; Table 1): 0.01 to 0.5 µg/mL (≈ 0.00576 to 0.288 µM)
MIC ([2]; Table 1): 0.01 to 0.5 µg/mL (≈ 0.00576 to 0.288 µM)
MIC (Enterococcus faecium 800; Table 1): 0.01 to 0.5 µg/mL (≈ 0.00576 to 0.288 µM)
MIC ([3]; Table 1): 0.01 to 0.5 µg/mL (≈ 0.00576 to 0.288 µM)
MIC ([4]; Table 1): 0.01 to 0.5 µg/mL (≈ 0.00576 to 0.288 µM)
MIC ([5]; Table 1): 0.01 to 0.5 µg/mL (≈ 0.00576 to 0.288 µM)
MIC ([6]; Table 1, class symbols): 0.01 to 0.5 µg/mL (≈ 0.00576 to 0.288 µM)
MIC ([7]; Table 1, class symbols): 1 to 2 µg/mL (≈ 0.576 to 1.15 µM)
MIC ([8]; Table 1): 1 to 2 µg/mL (≈ 0.576 to 1.15 µM)
MIC ([9]; Table 1): 0.01 to 0.5 µg/mL (≈ 0.00576 to 0.288 µM)
MIC ([10]; Table 1, class symbols): 0.5 to 1 µg/mL (≈ 0.288 to 0.576 µM)

CNCCOc1ccc(C(=O)NC(=O)C[C@@H]2NC(=O)[C@H](NC(=O)[C@@H](CC(C)C)NC)[C@H](O)c3ccc(c(Cl)c3)Oc3cc4cc(c3O[C@@H]3O[C@H](CO)[C@@H](O)[C@H](O)[C@H]3O[C@H]3C[C@](C)(N)[C@H](O)[C@H](C)O3)Oc3ccc(cc3Cl)[C@@H](O)[C@@H]3NC(=O)[C@H](NC(=O)[C@@H]4NC2=O)c2ccc(O)c(c2)-c2c(O)cc(O)cc2[C@@H](C(=O)NC2C4CC5CC(C4)CC2C5)NC3=O)cc1 (stereo partly drawn) [Compound 67]
MIC [1, 11]: 1 to 2 µg/mL
MIC [2, 11]: 0.01 to 0.5 µg/mL
MIC (Enterococcus faecium 800; [11]): 0.01 to 0.5 µg/mL
MIC [3, 11]: 0.01 to 0.5 µg/mL
MIC [4, 11]: 1 to 2 µg/mL
MIC [5, 11]: 0.01 to 0.5 µg/mL
MIC [6, 12]: 0.01 to 0.5 µg/mL
MIC [7, 12]: 1 to 2 µg/mL
MIC [8, 11]: 4 to 8 µg/mL
MIC [10, 12]: 0.01 to 0.5 µg/mL
